One block for each compound: values may come before it.
Legend:
M1 = molecular target: T1, M1 (Homo sapiens, UniProt P11229); assay: M1 PAM activity of oxidative metabolites; assay type: cell-based; conditions: in words
T1 construct: expressed in transfected cells
T1 sequence (P11229 1-460): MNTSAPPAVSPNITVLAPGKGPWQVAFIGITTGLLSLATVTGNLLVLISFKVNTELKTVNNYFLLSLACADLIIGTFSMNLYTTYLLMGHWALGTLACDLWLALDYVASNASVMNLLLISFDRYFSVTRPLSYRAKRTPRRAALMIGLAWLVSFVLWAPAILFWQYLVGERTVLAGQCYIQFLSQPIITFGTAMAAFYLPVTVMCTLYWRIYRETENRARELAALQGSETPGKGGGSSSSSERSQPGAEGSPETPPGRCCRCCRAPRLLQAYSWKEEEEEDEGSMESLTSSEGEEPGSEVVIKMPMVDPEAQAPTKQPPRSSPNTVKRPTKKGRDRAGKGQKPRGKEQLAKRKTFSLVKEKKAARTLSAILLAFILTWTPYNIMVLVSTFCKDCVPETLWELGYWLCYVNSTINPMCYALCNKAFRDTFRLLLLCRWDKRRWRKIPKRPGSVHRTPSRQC
Experimental: Procedures for Biological Experiments
Calcium mobilization assays:
All functional cell-based assays were performed in stable Chinese Hamster Ovary (CHO) cell lines constitutively expressing human M5 or human M1 receptors. For full muscarinic selectivity, CHO cells expressing human M3, human M2 plus Gqi5 or human M4 plus Gqi5 were used. Cells were plated at 15,000 cells per 20 µL per well in black 384-well, TC-treated, clear-bottomed plates (Greiner) in Ham’s F12 medium supplemented with 10% FBS and 20 mM HEPES. Cells were incubated overnight at 37 °C under 5% CO2. The following day, the medium was removed and replaced with 1.2 µM Fluo-4 AM (Invitrogen) in assay buffer (Hank’s Balanced Salt Solution supplemented with 20 mM HEPES and 2.5 mM Probenecid, pH 7.4) and the cells were incubated for 50 minutes at 37 °C under 5% CO2. Dye was then removed and replaced with 20 µL of fresh assay buffer. Test compounds at a 10 mM concentration in DMSO were serially diluted in DMSO (either 1:3 or 1:5 dilution) to create a 10-point concentration series. The DMSO solutions were then diluted in assay buffer resulting in compound solutions at 2-times the final assay concentration with the highest assay concentration of 30 µM. The compound plate, cell plate, and plates containing EC20 and EC80 acetylcholine concentrations were placed in a Hamamatsu FDSS 6000 or 7000 kinetic imaging plate reader equipped to measure Ex480/Em540 fluorescence. Data were collected at 1 frame per second. After 2 seconds of collecting baseline fluorescence, 20 µL of the compound solutions were added to the cell plate. This was followed by the addition of an EC20 concentration of acetylcholine at 142 seconds. […] The fluorescence signal was collected for a total of 300 seconds. […] Data were imported and analyzed in Dotmatics Informatics software. by normalizing all data in the individual kinetic traces to the initial fluorescence read. The magnitude of each agonist addition was then determined and normalized to the average maximum response. […] The IC50 determined using the EC80 of acetylcholine is the value reported. […]

[1] = Hepatocyte metabolite identification (human); assay type: in vitro ADME; conditions: human hepatocytes; for % Total Peak Area, oxidative metabolite formed: 2 from 1, 4 from 3, 6 from 5
Experimental: (§1) Prior to full characterization of deuterated analogues 3 and 5, they were incubated in rat, dog, monkey, and human hepatocytes, along with 1, to determine the amount of parent remaining, as well as the degree of undesired oxidative metabolites 2, 4, and 6 (Figure 2). […] For the gem-dideutero congener 3, metabolic stability was improved in vitro. […] Thus, in hepatocytes in vitro, the kinetic isotope effect engendered greater metabolic stability of the labile hot spot on the lactam. It remained to be seen if this effect would translate in vivo, but we first had to assess the impact of the deuterated analogues on molecular pharmacology, in vitro DMPK, standard low-dose in vivo DMPK and, if warranted, in vivo efficacy in a rat novel object recognition (NOR) behavioral assay.

[2] = Hepatocyte metabolite identification (rat); assay type: in vitro ADME; conditions: rat hepatocytes; 2 from 1, 4 from 3, 6 from 5
Experimental: as §1

[3] = Rat 14-day exploratory toxicology and toxicokinetic study; assay type: in vivo; conditions: rat 14-day study; for ratio AUC (%) / ratio Cmax (%): 6 relative to 5
Description: (§2) To this end, we prepared a 200 g lot of PAM 5 and performed, in parallel, a dog maximum tolerated dose (MTD) with a pharmacokinetics study and a 14-day rat exploratory toxicology and toxicokinetic study, quantifying plasma Cmax and AUC for both parent 5 and metabolite 6. […] Moreover, while exposure increased with dose, it was nonlinear. […] The series was terminated based on (1) poor and less than dose-proportional increases in systemic exposure, (2) lack of a kinetic isotope effect to diminish production of 6 in dogs and rats, and (3) strong likelihood of even higher concentrations of 6 to be present in man.

[4] = Hepatocyte metabolite identification (monkey); assay type: in vitro ADME; conditions: monkey hepatocytes; for % Total Peak Area, oxidative metabolite formed: 2 from 1, 4 from 3, 6 from 5
Experimental: as §1

[5] = Hepatocyte metabolite identification (dog); assay type: in vitro ADME; conditions: dog hepatocytes; 2 from 1, 4 from 3, 6 from 5
Experimental: as §1

[6] = Dog MTD with pharmacokinetics study; assay type: in vivo; conditions: dog MTD; for ratio AUC (%) / ratio Cmax (%): 6 relative to 5; for AUC / Cmax: plasma
Description: as §2

[7] = set-up: method as in doi:10.1002/alz.045339, doi:10.1016/j.jagp.2021.01.038; conditions: humans, phase I, upon increasing dose of 1; cited from earlier work
[8] = day 14, 300 mg/kg PO of 5, plasma
[9] = day 14, 750 mg/kg PO of 5, plasma
[10] = day 14, 1500 mg/kg PO of 5, plasma

SMILES: [2H]C1(O)c2ncccc2C(=O)N1Cc1c(F)cc(-c2cccc3nn(C([2H])([2H])[2H])cc23)cc1F (stereo not shown) [compound 6]
M1 PAM activity (M1): inactive
% Total Peak Area, oxidative metabolite formed [1]: 4.9%
% Total Peak Area, oxidative metabolite formed [2]: 8.1%
ratio AUC (%) ([3]; day 14, 300 mg/kg PO of 5): 28%
ratio Cmax (%) ([3]; day 14, 300 mg/kg PO of 5): 30%
AUC at 14 days [3, 8]: 89500 ng·h/mL
Cmax at 14 days [3, 8]: 6740 ng/mL
ratio AUC (%) ([3]; day 14, 750 mg/kg PO of 5): 23%
ratio Cmax (%) ([3]; day 14, 750 mg/kg PO of 5): 23%
AUC at 14 days [3, 9]: 125000 ng·h/mL
Cmax at 14 days [3, 9]: 7340 ng/mL
ratio AUC (%) ([3]; day 14, 1500 mg/kg PO of 5): 28%
ratio Cmax (%) ([3]; day 14, 1500 mg/kg PO of 5): 32%
AUC at 14 day [3, 10]: 143000 ng·h/mL
Cmax at 14 days [3, 10]: 9890 ng/mL
% Total Peak Area, oxidative metabolite formed [4]: 21%
% Total Peak Area, oxidative metabolite formed ([4]; listed as VU6045587): 21.0%
% Total Peak Area, oxidative metabolite formed [5]: 4.1%
ratio AUC (%) ([6]; 30 mg/kg PO of 5): 18%
ratio Cmax (%) ([6]; 30 mg/kg PO of 5): 19%
AUC ([6]; 30 mg/kg PO of 5): 6240 ng·h/mL
Cmax ([6]; 30 mg/kg PO of 5): 455 ng/mL
ratio AUC (%) ([6]; 300 mg/kg PO of 5): 21%
ratio Cmax (%) ([6]; 300 mg/kg PO of 5): 23%
AUC ([6]; 300 mg/kg PO of 5): 14100 ng·h/mL
Cmax ([6]; 300 mg/kg PO of 5): 818 ng/mL
ratio AUC (%) ([6]; 1000 mg/kg PO of 5): 19%
ratio Cmax (%) ([6]; 1000 mg/kg PO of 5): 17%
AUC ([6]; 1000 mg/kg PO of 5): 19200 ng·h/mL
Cmax ([6]; 1000 mg/kg PO of 5): 972 ng/mL

M1 PAM activity (M1): inactive
reduction in oxidative metabolite production versus 2 from 1 [1]: 50%
% Total Peak Area, oxidative metabolite formed [1]: 15.2%
% Total Peak Area, oxidative metabolite formed [2]: 7.8%
reduction in oxidative metabolite production versus 2 from 1 [4]: > 50%
% Total Peak Area, oxidative metabolite formed [4]: 30.3%
% Total Peak Area, oxidative metabolite formed [5]: 5.5%
SMILES: [2H]C1(O)c2ncccc2C(=O)N1Cc1c(F)cc(-c2cccc3nn(C)cc23)cc1F (stereo not shown) [compound 4]

M1 PAM activity (M1): inactive
% Total Peak Area, oxidative metabolite formed [1]: 34.9%
% Total Peak Area, oxidative metabolite formed [2]: 23.7%
% Total Peak Area, oxidative metabolite formed [4]: 74.3%
% Total Peak Area, oxidative metabolite formed [5]: 28.3%
SMILES: Cn1cc2c(-c3cc(F)c(CN4C(=O)c5cccnc5C4O)c(F)c3)cccc2n1 (stereo not shown) [compound 2]
share of the total drug-related area under the curve (AUC) [7]: > 50%
